# Tests used:
# [1] = test system: Gne^−/− hGNED176V-Tg mice; conditions: administration in water; Malicdan et al. 2009; cited from earlier work
# [2] = test system: mice homozygous for the M712T Gne mutation; conditions: ManNAc in water to mutant mice; Galeano et al. 2007; cited from earlier work
# PSA-NCAM [3] = test: Western blot of serum PSA-NCAM (RNL-1 antibody) in HIBM patient on ManNAc; type: in vivo, human; conditions: serum of ManNAc self-treated HIBM patient (2 years), FIG. 3 lane 7
# Procedure: (§1) Serum samples from normal individuals, HIBM patients before treatment, patients suffering from myopathy but not HIBM, and a HIBM patient on ManNAc therapy for 2 years were purified to reduce serum proteins. The samples were subjected to SDS PAGE and stained with a monoclonal antibody to NCAM (RNL-1, SantaCruz Biotech, Inc., CA) capable of detecting sialylated and unsialylated forms of NCAM (FIGS. 2 and 3). As a control, serum samples from healthy individuals were prepared as described above and treated with sialidase to remove sialic acid.
# (§2) For Western blotting, serum protein was extracted from 50 ul serum samples using Mem-PER® Eukaryotic Membrane Protein Extraction Reagent Kit (Thermo Scientific), then the hydrophilic (top) layer was cleaned and purified by SDS-PAGE Sample Prep Kit (Thermo Scientific). Final protein concentration was measured by BradfordUltra (Expedeon), and […] protein (15 uL) loaded per lane for electrophoresis separation. […] Primary (RNL-1, SantaCruz Biotech, Inc., CA) and secondary antibodies were applied, and detected using horseradish peroxidase (HRP) chemi-luminescence substrate (FIG. 3). […]
# (§3) For desialylated control sample, serum protein from healthy non-myopathic individuals was treated with Vibrio cholerae neuroaminidase (Sigma) (FIG. 3, lane 8). HIBM patients who were routinely ingesting N-Acetylmannosamine (ManNAc) were analyzed as well (FIG. 3, lane 7).
# PSA-NCAM [4] = test: Neuraminidase digestion of normal human serum, Western blot with C-20 polyclonal antibody; type: biochemical; conditions: 37° C. 4 hours, 0.35 m unit enzyme per μl serum, FIG. 5 lane 5
# Procedure: Experiments were performed to investigate the pattern of serum PSA-NCAM sialylation between normal controls and HIBM patients using a polyclonal antibody raised against human PSA-NCAM. Human serum was purified by a two-steps protocol to enrich PSA-NCAM. Raw sera from both normal human and HIBM patient were extracted by Mem-PER® membrane protein extraction kit (Thermo Scientific) according to the manufacturer's protocol. Serum was first mixed with a detergent and then a second detergent was added to solubilize membrane proteins. After centrifugation at 10,000 g for 3 minutes, the mixture was incubated at 37° C. to separate hydrophobic proteins from hydrophilic proteins through phase partitioning. The top hydrophilic layer was then further purified by SDS-PAGE sample prep kit (Thermo Scientific) to remove detergents and other contaminants that interfere with SDS-PAGE analysis.
# Purified serum was incubated with Vibrio cholera neuraminidase (Sigma) at 37° C. for 4 hours in order to cleave sialic acid (SA) from serum polysialic acid-glycoproteins, including PSA-NCAM. Digestion was carried out at a concentration of 0.35 m unit enzyme per μl of serum. […]
# Proteins were analyzed on a 10% Mini-Protean precast gel (BioRad) under reducing condition with 5% 2-mercaptoethanol. Final protein concentration was measured by Bradford Ultra (Expedeon). […]
# PSA-NCAM [5] = test: Neuraminidase digestion of normal human serum, Western blot with 123C3 antibody; type: biochemical; conditions: 37° C. 4 hours, 1 m unit enzyme per 3 μg protein, FIG. 4A lane 2, estimated
# Procedure: Experiments were performed to determine whether PSA-NCAM can be detected in human serum using well-defined mouse monoclonal antibodies raised against human PSA-NCAM (123C3). Human serum was purified by Aurum serum protein kit (Bio-Rad) to remove albumin and IgG which can interfere with SDS-PAGE analysis. Raw serum was diluted 4 times with protein binding buffer (supplied in the kit) and applied to the column. The albumin/IgG depleted serum was eluted by centrifugation at 10,000 g for 20 seconds and protein concentration was determined by modified Lowry assay (Bio-Rad DC protein assay).
# Purified serum was incubated in neuraminidase from Vibrio cholera (Sigma) at 37° C. for 4 hours in order to cleave sialic acid (SA) from serum polysialic acid-glycoproteins, including PSA-NCAM. Digestion was carried out at a concentration of 1 m unit enzyme per 3 μg of protein in 20 mM Tris buffer, pH 5.8. A negative control was included in the experiment under the same condition but without adding the neuraminidase. At the end of incubation, the mixture was cleaned up with micro bio-spin P30 columns (BioRad).
# Proteins were analyzed on 10% denaturing Tris-glycine SDS-PAGE gel (Invitrogen) under reducing condition. […]
# PSA-NCAM [6] = test: Sialidase treatment of normal human serum, Western blot with RNL-1 antibody; type: biochemical; conditions: normal human serum treated with sialidase
# Procedure: as §1, §2, §3
compound,measurement,setting,value
"CC(=O)N[C@@H]1C(O)O[C@H](CO)[C@@H](O)[C@@H]1O (some centres unmarked) [ManNAc, N-acetylmannosamine]",muscle atrophy and weakness,[1],reduced or prevented
same,renal histology (podocyte foot processes),[2],improved renal histology
same,sialylation of brain PSA-NCAM,[2],increased sialylation of brain PSA-NCAM
same,sialylation of renal podocalyxin,[2],increased sialylation of renal podocalyxin
same,survival,[2],improved survival
same,PSA-NCAM signal at ˜150 kD band on Western blot,PSA-NCAM [3],improved signal
"CC(=O)N[C@H]1[C@H]([C@H](O)[C@H](O)CO)OC(O)(C(=O)O)C[C@@H]1O (some centres unmarked) [sialic acid, 5-N-acetylneuraminic acid]",muscle atrophy and weakness,[1],reduced or prevented
"neuraminidase: neuraminidase from Vibrio cholera (Sigma), used to cleave sialic acid from serum glycoproteins",intensity of the 130 kDa and 60 kDa PSA-NCAM bands,PSA-NCAM [4],significantly reduced in intensity
same,reduction of molecular weight of the PSA-NCAM triplet,PSA-NCAM [5],10-15 kDa
same,upper and middle PSA-NCAM bands on Western blot,PSA-NCAM [6],disappeared
sialyl-lactose,muscle atrophy and weakness,[1],reduced or prevented

# From patent US20120276560A1, “BIOMARKERS FOR ASSESSING SIALIC ACID DEFICIENCIES” (priority 2010, published 2012)
